Measurements from ChEMBL document CHEMBL1121444, “Biological significance and therapeutic potential of prostacyclin” (J Med Chem, 1980).

Experiment: Compound was evaluated for half life at 37 degree Centigrade

| half-life | Compound |
| --- | --- |
| 0.5 min | CCCCC[C@H](O)/C=C/C1OC2CC(O2)[C@@H]1C/C=C\CCCC(=O)O (some centres not stated) |
| 3 min | CCCCC[C@H](O)/C=C/[C@@H]1[C@H]2C/C(=C/CCCC(=O)O)O[C@H]2C[C@H]1O [EPOPROSTENOL] |
